Data as given in patent US6365628B1 (Thia Medica AS, priority 1998, dated 2002).

How the values were obtained:
[1] = target: T1, PPARα (Homo sapiens, UniProt Q07869); assay: Ligand of PPARα; format: binding
T1 sequence (Q07869 1-468): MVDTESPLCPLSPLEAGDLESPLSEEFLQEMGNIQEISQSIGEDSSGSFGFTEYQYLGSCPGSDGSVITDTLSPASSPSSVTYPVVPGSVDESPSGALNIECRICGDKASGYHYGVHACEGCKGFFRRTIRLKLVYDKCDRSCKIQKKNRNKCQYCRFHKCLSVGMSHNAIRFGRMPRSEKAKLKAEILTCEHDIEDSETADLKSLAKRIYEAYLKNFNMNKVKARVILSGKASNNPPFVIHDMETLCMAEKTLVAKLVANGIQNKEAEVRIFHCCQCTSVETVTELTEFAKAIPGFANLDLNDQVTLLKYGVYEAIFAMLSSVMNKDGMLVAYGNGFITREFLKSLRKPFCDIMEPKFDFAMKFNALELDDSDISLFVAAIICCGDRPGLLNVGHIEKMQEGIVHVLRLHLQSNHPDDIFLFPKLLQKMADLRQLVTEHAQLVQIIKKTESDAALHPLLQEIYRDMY

[2] = test system: 5 weeks old Zucker (fa/fa) rats; assay: Blood insulin and glucose in 5 weeks old Zucker (fa/fa) rats (Example 13); format: in vivo, rat; details: 300 mg/kg/day oral gavage, 11 days (FIG. 5)
Description: (§1) Glucose (GLU, Boehringer Mannheim, Germany), free fatty acids (NEFA, C ACS-ACOD kit; Wako Chemicals, Dalton, USA) and b-hydroxybutyrate (310-A kit; Sigma Diagnostics Inc., St. Louis, USA) concentrations were measured using enzymatic methods. Insulin concentrations were determined with radioimmunoassay by (CIS bio International, Gif sur Yvette, France) using rat insulin as standard in the Zucker rats. In the Wistar Charles River rats, plasma glucose concentrations were measured with the aid of Beckman Glucose Analyzer (Fullerton, Calif., USA). Plasma insulin levels were measured using a RIA kit from Linco Research Inc. (St. Charles, Mo., USA). Phospholipids were measured by the enzymatic method of bioMérieux, Marcy-l {grave over ( )}Etoile, France, Triacylglycerol by the Technicon Method no. SA4-0324L90, USA and Cholesterol by the Technicon Method no. SA4-0305L90, USA.
The rats were administered TTA at a dose of 300 mg/kg/day suspended in 0.5% CMC (n=6) by oral gavage. Following 11 days of treatment, rats were killed by cervical dislocation. Blood was collected and the levels of insulin and glucose measured as indicated in the method section. Data are means±S.D.

[3] = test system: obese Zucker fa/fa rats; assay: Lipid lowering effect in obese Zucker fa/fa rats (Example 3); format: in vivo, rat; details: 300 mg/day/kg by gavage once daily for 10 days, control palmitic acid
Description: as §1
Male obese Zucker fa/fa rats, weighing 100 g at the start of the experiment, were housed in pairs in metal wire cages in a room maintained at 12 h light-dark cycles and a constant temperature of 20±3° C. The animals were acclimatised for at least one week under these conditions before the start of the experiment.
TTA (tetradecylthioacetic acid) prepared in accordance with procedure described previously, and palmitic acid (control), was suspended in 0.5% (w/v) carboxymethyl cellulose (CMC). Six animals were used in both groups. TTA (tetradecylthioacetic acid) and palmitic acid were administered at a dose of 300 mg/day/kg body weight, by gastric intubation (gavage) once daily for 10 days. The rats were fasted for 2 hours before termination of the experiment. Blood and organs were collected. Lipid concentrations in plasma were determined using an autoanalyzer, as described in the method section.

[4] = test system: male Wistar rats; assay: Body weight of male Wistar rats after 12 weeks of treatment (Example 6); format: in vivo, rat; details: oral TTA
Description: 2 groups of 6 male Wistar Rats were randomly selected, and studied for weight development over a period of 12 week. The body weight of each Wistar rat was measured at the start of the experiment. All animals in both groups received individually the same amount of food (nutrition) during the experimental period of 12 weeks. All animals in one of the groups were orally administrated with the medicament comprising TTA. The other group was the control group (CMC). After the 12 week period the body weight of rats were measured again.

[5] = test system: Wistar rats; assay: Lipid lowering effect in normal Wistar rats (Example 4); format: in vivo, rat; details: gavage once daily for 7 days, dose 150 mg/day/kg body weight
Description: Male Wistar rats, weighing 180-200 g at the start of the experiment, were housed individually in metal wire cages in a room maintained at 12 h light-dark cycles and a constant temperature of 20±3° C. The animals were acclimatised for one week under these conditions before the start of the experiments.
TTA, TSA and eicosapentaenoic acid (EPA) were suspended in 0.5% (w/v) carboxymethyl cellulose (CMC). Six animals were used for each treatment, and a 0.5% CMC solution was administrated to the rats as control. After administration of the test compound, the rats were fasted for 12 hours and anaesthetised with haloethan. The EPA and the fatty acid derivatives were administered by gastric intubation (gavage) once daily for 7 days. Blood samples were collected by cardiac puncture, and lipid concentrations in plasma were determined as outlined in the method section.

For Tetradecylthioacetic acid [TTA], the “Ligand of PPARα” value [1] was “potent ligand”, the “Reduction of blood concentration of glucose” value [2] was roughly 15% and the “Reduction of blood insulin concentration” value [2] was roughly 40%. For the same substance, the “Decreased lipid level in plasma (% of control) Cholesterol” value [3] was 73 % of control, the “Decreased lipid level in plasma (% of control) Phospholipids” value [3] was 71 % of control and the “Decreased lipid level in plasma (% of control) Triglycerides” value [3] was 72 % of control. For the same substance, the Body weight gain/grams [4] was 234 ± 20 grams, the “Plasma lipids (% reduction of control) cholesterol” value [5] was 30 % reduction of control and the “Plasma lipids (% reduction of control) triglycerides” value [5] was 45 % reduction of control.
